According to patent US8796249B2, “TGR5 modulators and methods of use thereof” (Intercept Pharmaceuticals, Inc., priority 2008, dated 2014):
Counter-ions that a name gives are not always drawn.

Columns and labels:
[1] = Biliary secretion, bile flow and metabolism in bile-fistula rat after duodenal (id) and femoral (iv) infusion; assay type: in vivo; conditions: for choleretic effect (bile flow): bile fistula rat
Procedure: To evaluate the mode and efficiency of the intestinal absorption the analogues were administered both intravenously (femoral infusion) and orally (duodenal infusion) at the same dose and their biliary secretion rate was evaluated in bile fistula rat model. The differences in the area under the curve of the biliary secretion vs time between iv and id administration account of its intestinal absorption and give information about its biovailability.
The bile fistula rat model was developed at the University of Bologna Lab facilities. The compound 3A was administered at a dose of 1 μmol/kg/min (1 hour infusion) to a rat group via duodenal infusion (id). Rat have a bile fistula to collect bile samples at different times before and during the infusion. For duodenal infusion experiment 3 rats (250±10 g) were treated. Bile samples were collected every 15 minutes for four hours. In addition, 3 control rats were treated with saline solution under the same conditions for times and sampling (duodenal control rats).
Duodenal infusion starts after 30 min baseline bile collection and continues for one hour.
For femoral infusion experiment, 3 rats were treated. […] Femoral infusion starts after 75 minutes of steady-state and continues for 60 min. Bile samples were collected every 15 minutes for four hours. In addition, 3 rats were treated with saline solution under the same conditions for times and sampling (femoral control rats).
Rat bile samples were brought to room temperature, briefly stirred, and diluted 1:100 v/v (bile samples from duodenal orinfusion) and 1:100 or 1:200 v/v (bile samples from femoral infusion) with 15 mM ammonium acetate buffer (pH=5.0):acetonitrile=70:30 (v/v). Final solution was transferred in autosampler vials, and 10 μL was injected into the chromatographic column.
Bile rat samples were analyzed by liquid chromatography-tandem mass spectrometry (HPLC-MS/MS) using electrospray (ESI) source in negative ionization mode. For liquid chromatography a Waters Alliance 2695 separation module coupled with autosampler was used. Autosampler was maintained at 7° C. Separation was performed on a Synergi Hydro-RP C18 column (150×2.0 mm i.d., 4 μm particle size), protected by a SecurityGuard ODS 4×2.0 mm i.d. precolumn, both supplied from Phenomenex. […]. Nitrogen was used as nebulizer gas at 90 L/h flow rate and as desolvation gas at 930 L/h. Ion source block and desolvation temperatures were set respectively to 80° C. and 180° C. Capillary voltage was 3.0 kV. MassLynx software version 4.0 was used for data acquisition and processing. In addition, using mass spectrometry both in single MS or tandem MS/MS configuration experiments were performed to identify metabolites.
A 5-point calibration curve was daily prepared and injected in duplicate. Calibration samples were obtained in the 0.1 to 25 μmol/L concentration range prepared in mobile phase. Linear calibration curve parameters were obtained from the plot of the analyte peak area versus analyte concentration using a least squares regression analysis (weight=1/x^2). Correlation coefficients were ≧0.989.
The data refer to the secretion rate of the analogues recovered in bile as such after duodenal and femoral infusion at a dose of 1 umol/Kg/min. Major and minor metabolites are reported later.
For a preliminary screening the search of the possible metabolites has been performed on the basis of the expected compounds according to previous experiments and data and to the structure and physicochemical properties of the studied analogues.

[2] = test system: pancreatic esterases; experiment: In vitro metabolic stability in simulated duodenal/pancreatic fluid; assay type: in vitro ADME, porcine
Procedure: This study has been performed for 2A since it contains an ester bond in the side chain and the aim was to verify the stability in presence of esterase enzymes like present in duodenal and pancreatic juice. Simulated pancreatic fluid was prepared by dissolving 10 g/L Pancreatin (Sigma P8096: pancreatin from porcine pancreas, activity 1× USP specifications) in 0.05M phosphate buffer, pH=7.2±0.1. Then, 4-mL aliquots of the simulated pancreatic fluid were added of […] of the studied BA and incubated for different times (0, 30, 60, 90, 120, 180 and 240 min) at 37° C. After incubation, a 2-mL aliquot of each solution was added with 2 mL of 0.1M NaOH and subjected to bile acids extraction by SPE and analysis by thin-layer chromatography and mass spectrometry as described above. […] Olive oil was used as a reference as reported in the USP protocol.

[3] = rat, duodenal infusion 1 umol/Kg/min 1 h, time 120 min
[4] = rat, duodenal infusion 1 umol/Kg/min 1 h, time 150 min
[5] = rat, duodenal infusion 1 umol/Kg/min 1 h, time 180 min
[6] = rat, duodenal infusion 1 umol/Kg/min 1 h, time 210 min
[7] = rat, duodenal infusion 1 umol/Kg/min 1 h, time 240 min
[8] = rat, duodenal infusion 1 umol/Kg/min 1 h, time 270 min
[9] = rat, duodenal infusion 1 umol/Kg/min 1 h, time 300 min
[10] = rat, femoral infusion 1 umol/Kg/min 1 h, time 90 min
[11] = rat, femoral infusion 1 umol/Kg/min 1 h, time 120 min
[12] = rat, femoral infusion 1 umol/Kg/min 1 h, time 150 min
[13] = rat, femoral infusion 1 umol/Kg/min 1 h, time 180 min
[14] = rat, femoral infusion 1 umol/Kg/min 1 h, time 210 min
[15] = rat, femoral infusion 1 umol/Kg/min 1 h, time 240 min

CC[C@H]1[C@@H](O)[C@@H]2[C@H](C[C@H](O)[C@]3(C)[C@@H]([C@H](C)CCCS(=O)(=O)[O-])CC[C@@H]23)[C@@]2(C)CC[C@@H](O)C[C@@H]12.[Na+] [Compound 3A, 3α,7α,12α-trihydroxy-6α-ethyl-5β-cholan-24-sulfonate Sodium Salt]
choleretic effect (bile flow) ([1]; duodenal infusion (id) 1 μmol/kg/min, 1 hour): moderate choleretic effect | choleretic effect (bile flow) ([1]; femoral infusion (iv), 60 min): moderate choleretic effect | hepatic and intestinal metabolism ([1]; bile-fistula rat, iv and id): not metabolized by the liver or by the intestine | intestinal absorption ([1]; rat, after id administration, recovery in bile much lower than after iv): poorly absorbed by the intestine | recovery in bile ([1]; rat, after iv administration): almost completely recovered in bile | Conc. in bile [1, 3]: 370 µM | Secretion (biliary) [1, 3]: 0.026 µmol/kg/min | Conc. in bile [1, 4]: 900 µM | Secretion (biliary) [1, 4]: 0.079 µmol/kg/min | Conc. in bile [1, 5]: 1300 µM | Secretion (biliary) [1, 5]: 0.101 µmol/kg/min | Conc. in bile [1, 6]: 950 µM | Secretion (biliary) [1, 6]: 0.061 µmol/kg/min | Conc. in bile [1, 7]: 700 µM | Secretion (biliary) [1, 7]: 0.043 µmol/kg/min | Conc. in bile [1, 8]: 580 µM | Secretion (biliary) [1, 8]: 0.039 µmol/kg/min | Conc. in bile [1, 9]: 510 µM | Secretion (biliary) [1, 9]: 0.029 µmol/kg/min | Conc. in bile [1, 10]: 2600 µM | Secretion (biliary) [1, 10]: 0.105 µmol/kg/min | Conc. in bile [1, 11]: 7300 µM | Secretion (biliary) [1, 11]: 0.588 µmol/kg/min | Conc. in bile [1, 12]: 7500 µM | Secretion (biliary) [1, 12]: 0.463 µmol/kg/min | Conc. in bile [1, 13]: 6200 µM | Secretion (biliary) [1, 13]: 0.363 µmol/kg/min | Conc. in bile [1, 14]: 3400 µM | Secretion (biliary) [1, 14]: 0.247 µmol/kg/min | Conc. in bile [1, 15]: 1000 µM | Secretion (biliary) [1, 15]: 0.045 µmol/kg/min

CCC1C(O)C2C3CCC(C(C)CC(C)OS(=O)(=O)O)C3(C)CCC2C2(C)CCC(O)CC12 [Compound 2A, 3α,7α,23-trihydroxy-6α-ethyl-23(S)-methyl-24-nor-5β-cholan-23-sulfate Sodium Salt]
metabolic stability in simulated pancreatic fluid ([2]; 10 g/L pancreatin, pH 7.2, 37° C., up to 240 min): very stable | hydrolysis of ester bond (sulphate) by pancreatic esterases ([2]; simulated pancreatic fluid): not hydrolyzed
